What was measured:
Assay type in all cases: in vivo, Male Wistar strain rats
[1] = system: hypoxemia model animals (acetic acid); test: Effect on partial pressure of gases in arterial blood, intravenous, Method B (acetic acid induced hypoxemia); details: 2.0% acetic acid, intravenous 0.1 mg/kg/min, 10 min, after minus before administration
Description: (§1) Example 75: Effect on Partial Pressure Value of Gases in Arterial Blood (Intravenous Injection System)
Male Wistar strain rats (body weight about 300 g) were anesthetized with halothane inhalant, and then 2.0% acetic acid was intratrachealy injected at 0.6 ml/kg to induce a respiratory insufficiency. The animals were intraperitonealy anesthetized with urethane-α-chloralose, and a cannula was inserted into the femoral artery. After the hypoxemic state (PaO2 : 60-70 mmHg) was observed a compound in accordance with the present invention (test substance) was continuously injected into these hypoxemia model animals intravenously (0.1 mg/kg/min, 10 min), and then a partial pressure value of gases (PaO2, PaCO2) in arterial blood was immediately determined.

[2] = system: hypoxemia model animals (carbon powder); test: Effect on partial pressure of gases in arterial blood, intravenous, Method A (carbon powder induced hypoxemia); details: intravenous 0.1 mg/kg/min, 10 min, after minus before administration
Description: as §1
Male Wistar strain rats (body weight about 300 g) were anesthetized intra-peritonealy with urethane, and a cannula was inserted into the respiratory tract and the femoral artery, respectively. A suspension (30-100 μm, 10 mg/ml) of carbon powder in a corn oil was intratrachealy injected to induce a hypoxemia state (PaO2 : 50-60 mmHg). A compound in the present invention was continuously injected into these hypoxemia model animals intravenously (0.1 mg/kg/min, 10 min), and then a partial pressure value of gases (PaO2, PaCO2) in arterial blood was immediately determined.

[3] = system: hypoxemia state (acetic acid); test: Effect on partial pressure of gases in arterial blood, oral administration (acetic acid induced hypoxemia); details: 2.0% acetic acid, 60 min after administration
Description: Example 76: Effect on Partial Pressure Value of Gases in Arterial Blood (Oral Administration System)
Male Wistar strain rats (body weight about 250 g) fasted overnight were anesthetized with halothane inhalant, and then a cannula was inserted into the femoral artery. After the animals recovered from the anesthesia, they were again anesthetized with halothane inhalant, and then 2.0% acetic acid was intratrachealy injected at 0.8 ml/kg to induce a hypoxemia state. After the hypoxemic state was observed over about 60 min., a compound in accordance with the present invention (test substance) was orally administered to the animals. On 60 min. after the administration, the partial pressure value of gases (PaO2, PaCO2) in arterial blood was determined.

C=CCNc1nc(N(C)Cc2ccccc2)c2c(n1)N(CC=C)CCC2 [Compound 189]
PaCO2 Decreasing Activity ΔPaCO2 [1]: -7.6 mmHg | PaO2 Increasing Activity ΔPaO2 [1]: +16.0 mmHg

C=C(C)CNc1nc2c(c(N3CCN(C(c4ccc(F)cc4)c4ccc(F)cc4)CC3)n1)CCCN2 [Compound 112]
PaCO2 Decreasing Activity ΔPaCO2 [2]: -2.0 mmHg | PaO2 Increasing Activity ΔPaO2 [2]: +4.6 mmHg

C=CCNc1nc2c(c(N3CCCC3)n1)CCCN2CC=C [Compound 143]
PaCO2 Decreasing Activity ΔPaCO2 [1]: -0.7 mmHg | PaO2 Increasing Activity ΔPaO2 [1]: +8.1 mmHg | PaCO2 Decreasing Activity ΔPaCO2 [3]: ± (0--3 mmHg) | PaO2 Increasing Activity ΔPaO2 [3]: + (+3-+6 mmHg)

C=CCNc1nc(NCC=C)c2c(n1)N(CC=C)CCC2 [Compound 168]
PaCO2 Decreasing Activity ΔPaCO2 [1]: -12.2 mmHg | PaO2 Increasing Activity ΔPaO2 [1]: +14.4 mmHg

C=CCNc1nc(NCC=C)c2c(n1)N(C)CCC2 [Compound 121]
PaCO2 Decreasing Activity ΔPaCO2 [1]: -1.2 mmHg | PaO2 Increasing Activity ΔPaO2 [1]: +15.9 mmHg | PaCO2 Decreasing Activity ΔPaCO2 [3]: + (-3--6 mmHg) | PaO2 Increasing Activity ΔPaO2 [3]: ++ (+6-+9 mmHg)

C=CCNc1nc2c(c(N3CCOCC3)n1)CCCN2CC=C [Compound 209]
PaCO2 Decreasing Activity ΔPaCO2 [1]: -2.4 mmHg | PaO2 Increasing Activity ΔPaO2 [1]: +7.6 mmHg | PaCO2 Decreasing Activity ΔPaCO2 [3]: + (-3--6 mmHg) | PaO2 Increasing Activity ΔPaO2 [3]: + (+3-+6 mmHg)

C=CCNc1nc(N(C)C)c2c(n1)N(CC=C)CCC2 [Compound 184]
PaCO2 Decreasing Activity ΔPaCO2 [1]: -3.2 mmHg | PaO2 Increasing Activity ΔPaO2 [1]: +10.4 mmHg

C=CCNc1nc(NCCc2ccccc2)c2c(n1)N(CC=C)CCC2 [Compound 171]
PaCO2 Decreasing Activity ΔPaCO2 [1]: -13.4 mmHg | PaO2 Increasing Activity ΔPaO2 [1]: +17.4 mmHg | PaCO2 Decreasing Activity ΔPaCO2 [3]: ± (0--3 mmHg) | PaO2 Increasing Activity ΔPaO2 [3]: + (+3-+6 mmHg)

C=CCNc1nc2c(c(N3CCCCCC3)n1)CCCN2CC=C [Compound 153]
PaCO2 Decreasing Activity ΔPaCO2 [1]: -0.9 mmHg | PaO2 Increasing Activity ΔPaO2 [1]: +10.0 mmHg

C=CCNc1nc2c(c(N3CCN(C(c4ccc(F)cc4)c4ccc(F)cc4)CC3)n1)CCCN2CC=C [Compound 159]
PaCO2 Decreasing Activity ΔPaCO2 [2]: +0.4 mmHg | PaO2 Increasing Activity ΔPaO2 [2]: +4.8 mmHg

C=CCNc1nc(N2CC=CCC2)c2c(n1)N(CC=C)CCC2 [Compound 213]
PaCO2 Decreasing Activity ΔPaCO2 [1]: -2.9 mmHg | PaO2 Increasing Activity ΔPaO2 [1]: +10.3 mmHg

C=CCNc1nc2c(c(N3CCc4ccccc4C3)n1)CCCN2CC=C [Compound 214]
PaCO2 Decreasing Activity ΔPaCO2 [1]: +2.2 mmHg | PaO2 Increasing Activity ΔPaO2 [1]: +9.8 mmHg

C=CCNc1nc2c(c(N3CCN(C)CC3)n1)CCCN2CC=C [Compound 155]
PaCO2 Decreasing Activity ΔPaCO2 [1]: +2.6 mmHg | PaO2 Increasing Activity ΔPaO2 [1]: +6.6 mmHg | PaCO2 Decreasing Activity ΔPaCO2 [3]: + (-3--6 mmHg) | PaO2 Increasing Activity ΔPaO2 [3]: ++ (+6-+9 mmHg)

C=CCNc1nc2c(c(N3CCCCC3)n1)CCCN2CC=C [Compound 145]
PaCO2 Decreasing Activity ΔPaCO2 [1]: -0.8 mmHg | PaO2 Increasing Activity ΔPaO2 [1]: +11.2 mmHg | PaCO2 Decreasing Activity ΔPaCO2 [3]: ± (0--3 mmHg) | PaO2 Increasing Activity ΔPaO2 [3]: + (+3-+6 mmHg)

C=CCNc1nc(SCCc2ccccc2)c2c(n1)N(CC=C)CCC2 [Compound 204]
PaCO2 Decreasing Activity ΔPaCO2 [1]: +2.2 mmHg | PaO2 Increasing Activity ΔPaO2 [1]: +15.0 mmHg

C=CCNc1nc(SC(C)c2ccccc2)c2c(n1)N(CC=C)CCC2 (stereo not drawn) [Compound 203]
PaCO2 Decreasing Activity ΔPaCO2 [1]: -2.1 mmHg | PaO2 Increasing Activity ΔPaO2 [1]: +9.5 mmHg

C=CCNc1nc2c(c(N3CCC(c4ccccc4)CC3)n1)CCCN2CC=C [Compound 146]
PaCO2 Decreasing Activity ΔPaCO2 [1]: +2.5 mmHg | PaO2 Increasing Activity ΔPaO2 [1]: +6.6 mmHg

C=CCNc1nc(NCC=C)c2c(n1)N(Cc1ccccc1)CCC2 [Compound 233]
PaCO2 Decreasing Activity ΔPaCO2 [1]: -4.0 mmHg | PaO2 Increasing Activity ΔPaO2 [1]: +8.6 mmHg
